Results published in ChEMBL document CHEMBL4732098, “Alkylated monoterpene indole alkaloid derivatives as potent P-glycoprotein inhibitors in resistant cancer cells” (Eur J Med Chem, 2021).

How the values were obtained:
[1] = tested on: L5178Y; experiment: Cytotoxicity against mouse L5178Y cells assessed as reduction in cell viability incubated for 24 hrs by MTT assay; assay type: cell-based
[2] = tested on: L5178Y; experiment: Cytotoxicity against mouse L5178Y cells transfected with human ABCB1 assessed as reduction in cell viability incubated for 24 hrs by MTT assay; assay type: cell-based
[3] = tested on: COLO 205; experiment: Cytotoxicity against human COLO 205 cells assessed as reduction in cell viability incubated for 24 hrs by MTT assay; assay type: cell-based; conditions: COLO 205, 24 h
[4] = tested on: COLO 320; experiment: Cytotoxicity against human COLO 320 cells assessed as reduction in cell viability incubated for 24 hrs by MTT assay; assay type: cell-based; conditions: COLO 320, 24 h
[5] = tested on: L5178Y; experiment: Synergistic cytotoxicity against mouse L5178Y cells transfected with human ABCB1 assessed as combination index measured after 72 hrs in presence doxorubicin by MTT assay based Chou-Talalay method; assay type: functional
[6] = tested on: COLO 320; experiment: Synergistic cytotoxicity against human resistant COLO 320 cells assessed as combination index measured after 72 hrs in presence doxorubicin by MTT assay based Chou-Talalay method; assay type: functional; conditions: dose 2 µM

SMILES	IC50 [1]	IC50 [2]	IC50 [3]	IC50 [4]	CI [5]	CI [6]
CC[C@@H]1CN(C)[C@H]2Cc3c([nH]c4ccccc34)C(=O)C[C@H]1C2C(=O)OC (some centres undefined)	55.9 µM	78.8 µM	> 100 µM	> 100 µM		
CC[C@H]1CN(C)[C@H]2Cc3c([nH]c4ccccc34)C(=O)C[C@H]1C2C(=O)OC (some centres undefined)	62.5 µM	91.8 µM	40.4 µM	71.6 µM		
CC[C@@H]1CN(C)[C@H]2Cc3c(n(CCc4cccc(Br)c4)c4ccccc34)C(=O)C[C@H]1C2C(=O)OC (some centres undefined)	39.6 µM	85.6 µM	> 100 µM	94.8 µM	<1	
C=CCn1c2c(c3ccccc31)C[C@H]1C(C(=O)OC)[C@H](CC2=O)[C@H](CC)CN1C (some centres undefined)	64.2 µM	96.6 µM	> 100 µM	> 100 µM		
CC[C@@H]1CN(C)[C@H]2Cc3c(n(CCc4ccc(Br)cc4)c4ccccc34)C(=O)C[C@H]1C2C(=O)OC (some centres undefined)	71 µM	59.3 µM	> 100 µM	> 100 µM	<1	
CC[C@@H]1CN(C)[C@H]2Cc3c(n(Cc4cccc(OC)c4)c4ccccc34)C(=O)C[C@H]1C2C(=O)OC (some centres undefined)	42.1 µM	36.7 µM	88.4 µM	84.4 µM	<1	
CC[C@@H]1CN(C)[C@H]2Cc3c(n(Cc4cccc(Cl)c4)c4ccccc34)C(=O)C[C@H]1C2C(=O)OC (some centres undefined)	38.4 µM	38.1 µM	> 100 µM	74.7 µM	<1	
CC[C@@H]1CN(C)[C@H]2Cc3c(n(Cc4ccc(C(=O)c5ccccc5)cc4)c4ccccc34)C(=O)C[C@H]1C2C(=O)OC (some centres undefined)	89.3 µM	> 100 µM	> 100 µM	> 100 µM		
CC[C@@H]1CN(C)[C@H]2Cc3c(n(Cc4ccc(C)cc4)c4ccccc34)C(=O)C[C@H]1C2C(=O)OC (some centres undefined)	31.8 µM	37.1 µM	11.8 µM	53 µM	<1	<1
CC[C@@H]1CN(C)[C@H]2Cc3c(n(Cc4ccc(OC)cc4)c4ccccc34)C(=O)C[C@H]1C2C(=O)OC (some centres undefined)	86 µM	80.1 µM	90.6 µM	76.8 µM		
CC[C@@H]1CN(C)[C@H]2Cc3c(n(Cc4ccccc4C)c4ccccc34)C(=O)C[C@H]1C2C(=O)OC (some centres undefined)	42.2 µM	61 µM	> 100 µM	97.5 µM	<1	
CC[C@@H]1CN(C)[C@H]2Cc3c(n(Cc4ccc([N+](=O)[O-])cc4)c4ccccc34)C(=O)C[C@H]1C2C(=O)OC (some centres undefined)	63.3 µM	81 µM	> 100 µM	86.2 µM		
CC[C@@H]1CN(C)[C@H]2Cc3c(n(Cc4cccc([N+](=O)[O-])c4)c4ccccc34)C(=O)C[C@H]1C2C(=O)OC (some centres undefined)	63.1 µM	58.9 µM	> 100 µM	> 100 µM	<1	
CC[C@@H]1CN(C)[C@H]2Cc3c(n(Cc4ccccn4)c4ccccc34)C(=O)C[C@H]1C2C(=O)OC (some centres undefined)	97.6 µM	> 100 µM	> 100 µM	> 100 µM		
CCCn1c2c(c3ccccc31)C[C@H]1C(C(=O)OC)[C@H](CC2=O)[C@H](CC)CN1C (some centres undefined)	35.1 µM	48.5 µM	> 100 µM	> 100 µM	<1	
CC[C@@H]1CN(C)[C@H]2Cc3c(n(CCc4ccc(OC)cc4)c4ccccc34)C(=O)C[C@H]1C2C(=O)OC (some centres undefined)	25.5 µM	37.2 µM	80 µM	49 µM	<1	<1
CC[C@H]1CN(C)[C@H]2Cc3c(n(CC)c4ccccc34)C(=O)C[C@H]1C2C(=O)OC (some centres undefined)	66.3 µM	48.4 µM	> 100 µM	> 100 µM	<1	
CC[C@H]1CN(C)[C@H]2Cc3c(n(Cc4ccc(Br)cc4)c4ccccc34)C(=O)C[C@H]1C2C(=O)OC (some centres undefined)	34.7 µM	38.5 µM	28.4 µM	24.8 µM	<1	
CC[C@H]1CN(C)[C@H]2Cc3c(n(Cc4ccc(OC)cc4)c4ccccc34)C(=O)C[C@H]1C2C(=O)OC (some centres undefined)	50.7 µM	35.6 µM	58.9 µM	60.3 µM	<1	<1
CC[C@@H]1CN(C)[C@H]2Cc3c(n(Cc4ccc(Cl)cc4)c4ccccc34)C(=O)C[C@H]1C2C(=O)OC (some centres undefined)	48.3 µM	43.2 µM	55.5 µM	61.3 µM	<1	
CC[C@H]1CN(C)[C@H]2Cc3c(n(Cc4ccc(Cl)cc4)c4ccccc34)C(=O)C[C@H]1C2C(=O)OC (some centres undefined)	32.4 µM	24.1 µM	15.9 µM	23.4 µM	<1	
CC[C@@H]1CN(C)[C@H]2Cc3c(n(CCc4cccc(OC)c4)c4ccccc34)C(=O)C[C@H]1C2C(=O)OC (some centres undefined)	40.6 µM	78.4 µM	> 100 µM	> 100 µM	<1	
CC[C@@H]1CN(C)[C@H]2Cc3c(n(CC)c4ccccc34)C(=O)C[C@H]1C2C(=O)OC (some centres undefined)	69.4 µM	74.4 µM	> 100 µM	> 100 µM		
CC[C@@H]1CN(C)[C@H]2Cc3c(n(Cc4cccc(C)c4)c4ccccc34)C(=O)C[C@H]1C2C(=O)OC (some centres undefined)	41.9 µM	52.8 µM	93.6 µM	82.2 µM	<1	
CC[C@@H]1CN(C)[C@H]2Cc3c(n(Cc4cc(OC)cc(OC)c4)c4ccccc34)C(=O)C[C@H]1C2C(=O)OC (some centres undefined)	27.8 µM	39.1 µM	> 100 µM	> 100 µM	<1	
CC[C@@H]1CN(C)[C@H]2Cc3c(n(Cc4ccc(Br)cc4)c4ccccc34)C(=O)C[C@H]1C2C(=O)OC (some centres undefined)	36.4 µM	45 µM	39.7 µM	45.7 µM	<1	
CCCn1c2c(c3ccccc31)C[C@H]1C(C(=O)OC)[C@H](CC2=O)[C@@H](CC)CN1C (some centres undefined)	45.1 µM	34.7 µM	25.2 µM	40.5 µM	<1	
CC[C@@H]1CN(C)[C@H]2Cc3c(n(CCCO)c4ccccc34)C(=O)C[C@H]1C2C(=O)OC (some centres undefined)	> 100 µM	> 100 µM	> 100 µM	> 100 µM		
